# Values joined by “and” are separate entries in the source; they are usually repeats but may differ in a detail not shown here. Identical values can stand only once.
# System: 287954-098-R-J1 tumor spheroid viability
# Test: Anticancer human tumor 287954-098-R-J1 patient-derived Ewing sarcoma cell line growth inhibition
# Settings: spheroids with HUVEC and MSC; for viability, T/C: stronger effect = lower value
# In short: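 Complex tumor spheroids combined malignant cells with endothelial cells and mesenchymal stem cells. DNA-damaging drugs and DNA repair inhibitors were tested alone and in combination, at half-log dilutions down from clinical Cmax (top 10 microM if Cmax unknown), 0.25% DMSO final.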
# 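Also: spheroids exposed to compound for 7 days before viability readout.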
# 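For viability, T/C in this document: luminescent signal taken as surrogate of viable cell content; 100% = DMSO vehicle control viability and lower means growth inhibition.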
smiles,measurement,setting,value
COc1cc(C)[nH]c(=O)c1CN1CCc2c(Cl)cc(C(OC)C3COC3)c(Cl)c2C1=O (stereo unspecified) + CC[C@@]1(O)C(=O)OCc2c1cc1n(c2=O)Cc2cc3c(CN(C)C)c(O)ccc3nc2-1,IC50,"curve of first compound, second compound 0.003 µM",> 10 µM
same,IC50,"curve of first compound, second compound 0.00949 µM",> 10 µM
same,IC50,"curve of first compound, second compound 0.03 µM",0.117 µM
same,IC50,"curve of first compound, second compound 0.0949 µM",< 0.0316 µM
same,IC50,"curve of first compound, second compound 0.3 µM",< 0.0316 µM
same,"viability, T/C","second compound 0.003 µM, first compound 0.0316 µM",94.9%
same,"viability, T/C","second compound 0.003 µM, first compound 0.1 µM",94.7%
same,"viability, T/C","second compound 0.003 µM, first compound 0.316 µM",99.9%
same,"viability, T/C","second compound 0.003 µM, first compound 1 µM",95.5%
same,"viability, T/C","second compound 0.003 µM, first compound 3.16 µM",88%
same,"viability, T/C","second compound 0.003 µM, first compound 10 µM",93%
same,"viability, T/C","second compound 0.00949 µM, first compound 0.0316 µM",108%
same,"viability, T/C","second compound 0.00949 µM, first compound 0.1 µM",99.6%
same,"viability, T/C","second compound 0.00949 µM, first compound 0.316 µM",92.3%
same,"viability, T/C","second compound 0.00949 µM, first compound 1 µM",89.1%
same,"viability, T/C","second compound 0.00949 µM, first compound 3.16 µM",95.1%
same,"viability, T/C","second compound 0.00949 µM, first compound 10 µM",92.8%
same,"viability, T/C","second compound 0.03 µM, first compound 0.0316 µM",63.6%
same,"viability, T/C","second compound 0.03 µM, first compound 0.1 µM",36.6%
same,"viability, T/C","second compound 0.03 µM, first compound 0.316 µM",50.9%
same,"viability, T/C","second compound 0.03 µM, first compound 1 µM",36.4%
same,"viability, T/C","second compound 0.03 µM, first compound 3.16 µM",28%
same,"viability, T/C","second compound 0.03 µM, first compound 10 µM",2.56%
same,"viability, T/C","second compound 0.0949 µM, first compound 0.0316 µM",1.65%
same,"viability, T/C","second compound 0.0949 µM, first compound 0.1 µM",1.55%
same,"viability, T/C","second compound 0.0949 µM, first compound 0.316 µM",1.34%
same,"viability, T/C","second compound 0.0949 µM, first compound 1 µM",1.37%
same,"viability, T/C","second compound 0.0949 µM, first compound 3.16 µM",1.24%
same,"viability, T/C","second compound 0.0949 µM, first compound 10 µM",1.63%
same,"viability, T/C","second compound 0.3 µM, first compound 0.0316 µM",1.38%
same,"viability, T/C","second compound 0.3 µM, first compound 0.1 µM",1.47%
same,"viability, T/C","second compound 0.3 µM, first compound 0.316 µM",1.35%
same,"viability, T/C","second compound 0.3 µM, first compound 1 µM",1.69%
same,"viability, T/C","second compound 0.3 µM, first compound 3.16 µM",1.33%
same,"viability, T/C","second compound 0.3 µM, first compound 10 µM",1.57%
CC[C@@]1(O)C(=O)OCc2c1cc1n(c2=O)Cc2cc3c(CN(C)C)c(O)ccc3nc2-1,"viability, T/C",compound 0.003 µM,104% [middle of 10 runs]
same,"viability, T/C",compound 0.00949 µM,101% [middle of 10 runs]
same,"viability, T/C",compound 0.03 µM,15.2% [middle of 10 runs]
same,"viability, T/C",compound 0.0949 µM,1.9% [middle of 9 runs]
same,"viability, T/C",compound 0.3 µM,1.83% [middle of 10 runs]
same,IC50,"compound alone, run of 10/17/2019",19.4 nM [middle of 5 runs]
same,IC50,"compound alone, run of 10/25/2019",18.8 nM [middle of 4 runs]
Cc1cc(C)c(CNC(=O)c2cc(-c3ccc(CN4CCOCC4)cc3)cc3c2cnn3C2CCCC2)c(=O)[nH]1,"viability, T/C",compound 0.0316 µM,104% and 106% and 95.4%
same,"viability, T/C",compound 0.1 µM,95.6% and 106% and 114%
same,"viability, T/C",compound 0.316 µM,99.8% and 99.5% and 103%
same,"viability, T/C",compound 1 µM,102% and 97.1% and 101%
same,"viability, T/C",compound 3.16 µM,98.2% and 112% and 109%
same,"viability, T/C",compound 10 µM,113% and 108% and 114%
same,IC50,curve of compound,> 10 µM
COc1ccc([C@@H](O)c2cc(-c3ncnc4cc(N5CCOCC5)ccc34)c(F)cc2Cl)nn1 + Cn1nnc2c(C(N)=O)ncn2c1=O,IC50,"curve of first compound, second compound 1 µM",> 10 µM
same,IC50,"curve of first compound, second compound 3.16 µM",> 10 µM
same,IC50,"curve of first compound, second compound 10 µM",> 10 µM
same,IC50,"curve of first compound, second compound 31.6 µM",> 10 µM
same,IC50,"curve of first compound, second compound 100 µM",> 10 µM
same,"viability, T/C","second compound 1 µM, first compound 0.0316 µM",107%
same,"viability, T/C","second compound 1 µM, first compound 0.1 µM",109%
same,"viability, T/C","second compound 1 µM, first compound 0.316 µM",109%
same,"viability, T/C","second compound 1 µM, first compound 1 µM",112%
same,"viability, T/C","second compound 1 µM, first compound 3.16 µM",101%
same,"viability, T/C","second compound 1 µM, first compound 10 µM",92.8%
same,"viability, T/C","second compound 3.16 µM, first compound 0.0316 µM",105%
same,"viability, T/C","second compound 3.16 µM, first compound 0.1 µM",105%
same,"viability, T/C","second compound 3.16 µM, first compound 0.316 µM",104%
same,"viability, T/C","second compound 3.16 µM, first compound 1 µM",107%
same,"viability, T/C","second compound 3.16 µM, first compound 3.16 µM",101%
same,"viability, T/C","second compound 3.16 µM, first compound 10 µM",94.5%
same,"viability, T/C","second compound 10 µM, first compound 0.0316 µM",107%
same,"viability, T/C","second compound 10 µM, first compound 0.1 µM",106%
same,"viability, T/C","second compound 10 µM, first compound 0.316 µM",101%
same,"viability, T/C","second compound 10 µM, first compound 1 µM",105%
same,"viability, T/C","second compound 10 µM, first compound 3.16 µM",105%
same,"viability, T/C","second compound 10 µM, first compound 10 µM",101%
same,"viability, T/C","second compound 31.6 µM, first compound 0.0316 µM",103%
same,"viability, T/C","second compound 31.6 µM, first compound 0.1 µM",111%
same,"viability, T/C","second compound 31.6 µM, first compound 0.316 µM",105%
same,"viability, T/C","second compound 31.6 µM, first compound 1 µM",112%
same,"viability, T/C","second compound 31.6 µM, first compound 3.16 µM",110%
same,"viability, T/C","second compound 31.6 µM, first compound 10 µM",97%
same,"viability, T/C","second compound 100 µM, first compound 0.0316 µM",102%
same,"viability, T/C","second compound 100 µM, first compound 0.1 µM",110%
same,"viability, T/C","second compound 100 µM, first compound 0.316 µM",104%
same,"viability, T/C","second compound 100 µM, first compound 1 µM",109%
same,"viability, T/C","second compound 100 µM, first compound 3.16 µM",96.9%
same,"viability, T/C","second compound 100 µM, first compound 10 µM",84%
Cn1ncnc1[C@H]1c2n[nH]c(=O)c3cc(F)cc(c23)N[C@@H]1c1ccc(F)cc1,"viability, T/C",compound 0.00949 µM,112% and 99.5% and 92.6%
same,"viability, T/C",compound 0.03 µM,101% and 104% and 107%
same,"viability, T/C",compound 0.0949 µM,98.5% and 97% and 105%
same,"viability, T/C",compound 0.3 µM,97.8% and 95.6% and 94.2%
same,"viability, T/C",compound 0.949 µM,2.74% and 25.4% and 16.7%
same,"viability, T/C",compound 3 µM,2.53% and 1.95% and 1.33%
same,IC50,curve of compound,0.536 µM and 0.633 µM and 0.579 µM
